Drawing on ChEMBL document CHEMBL1938379, “Capture hydrolysis signals in the microsomal stability assay: molecular mechanisms of the alkyl ester drug and prodrug metabolism” (Bioorg Med Chem Lett, 2012), this text covers microsomal CLint for 29 molecules.

A value given as a limit tells only on which side of the number the result lay.

The data set can be described thus: Clearance in human liver microsomes at 1 uM measured after 60 mins by HPLC analysis.

The molecule `CCOC(=O)[C@H](CCc1ccccc1)N[C@@H](C)C(=O)N1[C@H](C(=O)O)C[C@@H]2CCC[C@@H]21` gave an intrinsic clearance (microsomal CLint) at 1 h, 1 µM (liver microsomes) of 46.1 µL/min/mg.
Where the note is “liver microsomes”, `CCOC(=O)[C@H](CCc1ccccc1)N[C@@H](C)C(=O)N1Cc2ccccc2C[C@H]1C(=O)O` had an intrinsic clearance (microsomal CLint) at 1 h, 1 µM of 8.5 µL/min/mg.
On the same count and under the same terms, with `CCOC(=O)[C@H](CCc1ccccc1)N[C@@H](C)C(=O)N1CC2(C[C@H]1C(=O)O)SCCS2` the figure was below 8 µL/min/mg.
As to `CC1=C(C(=O)OC(C)C)C(c2cccc([N+](=O)[O-])c2)C(C(=O)OC2CN(C(c3ccccc3)c3ccccc3)C2)=C(N)N1` (centres undefined) [AZELNIDIPINE], the intrinsic metabolic clearance (microsomal CLint) at 1 h, 1 µM (liver microsomes) worked out at 33.9 µL/min/mg.
As for `CCOC(=O)[C@H](CCc1ccccc1)N[C@H]1CCc2ccccc2N(CC(=O)O)C1=O` [BENAZEPRIL], the microsomal CLint at 1 h, 1 µM (liver microsomes) came out at 52.5 µL/min/mg.
As for `CCOC(=O)COc1ccc2c(C)c(CCN(CC)CC)c(=O)oc2c1` [CHROMONAR], the intrinsic metabolic clearance (microsomal CLint) at 1 h, 1 µM (liver microsomes) was above 300 µL/min/mg.
In turn, `COC(=O)[C@H](c1ccccc1Cl)N1CCc2sccc2C1` [CLOPIDOGREL] gave a microsomal CLint at 1 h, 1 µM (microsomes) above 300 µL/min/mg.
For `CCOC(=O)COc1ccc2c(=O)cc(-c3ccccc3)oc2c1` [EFLOXATE], where the note is “liver microsomes”, the intrinsic metabolic clearance (microsomal CLint) at 1 h, 1 µM was above 300 µL/min/mg.
Same read-out and setting: with `COC(=O)[C@@H]1CC2=CC(=O)CC[C@]2(C)[C@@]23O[C@@H]2C[C@@]2(C)[C@@H](CC[C@@]24CCC(=O)O4)[C@H]13` [EPLERENONE] the figure was 7.9 µL/min/mg; with `CCOC(=O)C1(c2ccccc2)CCCN(C)CC1` (centres undefined) [ETHOHEPTAZINE], 22.6 µL/min/mg.
Under “liver microsomes”, `CCOC(=O)/C=C1\SC(N2CCCCC2)C(=O)N1C` (centres undefined) [ETOZOLIN] returned an intrinsic clearance (microsomal CLint) at 1 h, 1 µM of 20.5 µL/min/mg.
Molecule `CCOC(=O)c1ncn2c1CN(C)C(=O)c1cc(F)ccc1-2` [FLUMAZENIL] displayed a microsomal CLint at 1 h, 1 µM (liver microsomes) of 10.6 µL/min/mg.
For the setting “liver microsomes”, `COC(=O)C1=C(C)NC(C)=C(C(=O)OC(C)C)C1c1cccc2nonc12` (centres undefined) [ISRADIPINE] displayed a microsomal CLint at 1 h, 1 µM above 300 µL/min/mg.
As for `CCOC(=O)C1=C(C)NC(C)=C(C(=O)OCC)C1c1ccccc1/C=C/C(=O)OC(C)(C)C` [LACIDIPINE], for the setting “liver microsomes”, the intrinsic metabolic clearance (microsomal CLint) at 1 h, 1 µM is 99.2 µL/min/mg.
As for `COC(=O)C1=C(C)NC(C)=C(C(=O)OC(C)(C)CN(C)CCC(c2ccccc2)c2ccccc2)C1c1cccc([N+](=O)[O-])c1` (centres undefined) [LERCANIDIPINE], for the setting “liver microsomes”, the microsomal CLint at 1 h, 1 µM was 125 µL/min/mg.
`COC(=O)C1=C(C)NC(C)=C(C(=O)OCCN2CCN(C(c3ccccc3)c3ccccc3)CC2)C1c1cccc([N+](=O)[O-])c1` (centres undefined) [MANIDIPINE 6300] yielded a microsomal CLint at 1 h, 1 µM (liver microsomes) of 93.4 µL/min/mg.
Turning to `COC(=O)C(c1ccccc1)C1CCCCN1` (centres undefined) [METHYLPHENIDATE], the microsomal CLint at 1 h, 1 µM (liver microsomes) stood at 11.1 µL/min/mg.
Under “liver microsomes”, `CCOC(=O)[C@H](CCc1ccccc1)N[C@@H](C)C(=O)N1Cc2cc(OC)c(OC)cc2C[C@H]1C(=O)O` [MOEXIPRIL] returned a microsomal CLint at 1 h, 1 µM below 8 µL/min/mg.
In the case of `COC(=O)C1=C(C#N)NC(C)=C(C(=O)OC(C)C)C1c1cccc([N+](=O)[O-])c1` (centres undefined) [NILVADIPINE], the microsomal CLint at 1 h, 1 µM (liver microsomes) came to 205 µL/min/mg.
`COCCOC(=O)C1=C(C)NC(C)=C(C(=O)OC(C)C)C1c1cccc([N+](=O)[O-])c1` (centres undefined) [NIMODIPINE] registered a microsomal CLint at 1 h, 1 µM (liver microsomes) above 300 µL/min/mg.
`COC(=O)C1=C(C)NC(C)=C(C(=O)OCC(C)C)C1c1ccccc1[N+](=O)[O-]` (centres undefined) [NISOLDIPINE] yielded an intrinsic clearance (microsomal CLint) at 1 h, 1 µM (liver microsomes) above 300 µL/min/mg.
As for `CCOC(=O)C1=C(C)NC(C)=C(C(=O)OC)C1c1cccc([N+](=O)[O-])c1` (centres undefined) [NITRENDIPINE], under “liver microsomes”, the microsomal CLint at 1 h, 1 µM was found to be 166 µL/min/mg.
`CCC[C@H](N[C@@H](C)C(=O)N1[C@H](C(=O)O)C[C@@H]2CCCC[C@@H]21)C(=O)OCC` [PERINDOPRIL]: the microsomal CLint at 1 h, 1 µM (liver microsomes) worked out at 10.7 µL/min/mg.
As for `COC(=O)[C@H]1[C@H]2C[C@@H]3c4[nH]c5cc(OC)ccc5c4CCN3C[C@H]2C[C@@H](OC(=O)c2cc(OC)c(OC)c(OC)c2)[C@@H]1OC` [RESERPINE], the intrinsic clearance (microsomal CLint) at 1 h, 1 µM (liver microsomes) turned out to be 18.3 µL/min/mg.
Take `CCOC(=O)[C@H](CCc1ccccc1)N[C@H]1CS[C@H](c2cccs2)CN(CC(=O)O)C1=O` [TEMOCAPRIL]: the microsomal CLint at 1 h, 1 µM (liver microsomes) was found to be 133 µL/min/mg.
Still for that read-out and setting: in the case of `CCOC(=O)c1c(N)sc2c1CCN(Cc1ccccc1)C2` [TINORIDINE] it was 71.2 µL/min/mg; in that of `CC[C@]12CCCN3CCc4c(n(c5ccccc45)[C@@](O)(C(=O)OC)C1)[C@@H]32` [VINCAMINE], 66 µL/min/mg.
On to `C#C[C@H](CC(=O)OCC)NC(=O)CCC(=O)Nc1ccc(C(=N)N)cc1` [XEMILOFIBAN], for which the intrinsic metabolic clearance (microsomal CLint) at 1 h, 1 µM (liver microsomes) was below 8 µL/min/mg.
Consider `COC(=O)[C@@H]1[C@H]2C[C@H]3c4[nH]c5ccccc5c4CCN3C[C@@H]2CC[C@@H]1O` [YOHIMBINE], for which the microsomal CLint at 1 h, 1 µM (liver microsomes) stood at 34.4 µL/min/mg.
